From article PMC11923649, “Novel C-2 Aromatic Heterocycle-Substituted Triterpenoids Inhibit Hedgehog Signaling in GLI1 Overexpression Cancer Cells” (ACS Omega, 2025) come the findings set out here.

pIC50: −log10 of the molar value.

Assay [1] deals with BJ human skin fibroblasts. Nature of the assay: MTS cytotoxicity assay, 72 h, BJ fibroblasts. It counts as cell-based. The conditions noted are these: normal fibroblasts; for pIC50: Homo sapiens, Skin fibroblast. In short, it runs like this:
(§1)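 MTS read-out (A490 after 1–4 h with MTS/PMS) following 72 h continuous compound treatment. Concentrations spanned 50–0.0975 μmol/L in twofold steps; IC50 values calculated from the curves.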

The next assay relates to CEM-DNR. Nature of the assay: MTS cytotoxicity assay, 72 h, CEM-DNR. It counts as cell-based. The conditions noted are these: Homo sapiens. A general note: Formazan colour is commonly taken as a measure of viable cells.
The test system of the next assay is DU-145 (prostate cancer). The assay can be described thus: MTS cytotoxicity assay, 72 h, DU-145. The conditions noted are these: Homo sapiens, DU-145, 72 h. It counts as cell-based, human. In a few lines:
as §1

A further assay deals with MRC-5 lung fibroblasts. The assay can be described thus: MTS cytotoxicity assay, 72 h, MRC-5 fibroblasts. The format is cell-based, human. The conditions noted are these: normal fibroblasts; for pIC50: Homo sapiens, MRC5, 72 h. In short, it runs like this:
as §1

The test system of the next assay is K562-TAX. The assay can be described thus: MTS cytotoxicity assay, 72 h, K562-TAX. The format is cell-based.
The test system of assay [2] is A549 (lung adenocarcinoma). Nature of the assay: MTS cytotoxicity assay, 72 h, A549. The conditions noted are these: Homo sapiens, A549, 72 h. The format is cell-based. In short, it runs like this:
as §1

For the next assay, the system named is HCT116 p53–/–. The assay can be described thus: MTS cytotoxicity assay, 72 h, HCT116 p53–/–. The conditions noted are these: Homo sapiens, HCT-116, 72 h. It counts as cell-based. In short, it runs like this: as §1
In the next assay the test system is CCRF-CEM. The assay can be described thus: MTS cytotoxicity assay, 72 h, CCRF-CEM. The format is cell-based. Particulars: for pIC50: Homo sapiens, CCRF-CEM, 72 h, MTS. In a few lines: as §1
The subject of a further assay is HCT 116. The assay can be described thus: MTS cytotoxicity assay, 72 h, HCT 116. The format is cell-based. Particulars: Homo sapiens, HCT-116, 72 h. In short, it runs like this: as §1
Assay [3] concerns K562 (chronic myelogenous leukemia). Nature of the assay: MTS cytotoxicity assay, 72 h, K562. The format is cell-based. Particulars: Homo sapiens. In short, it runs like this:
as §1

The test system of the next assay is U2OS. Nature of the assay: MTS cytotoxicity assay, 72 h, U2OS. The format is cell-based. The conditions noted are these: Homo sapiens.
The mark [4] stands for this setting: CCRF-CEM vs average of BJ and MRC-5, full Table S1.
Where [5] appears, read: IC50 of CCRF-CEM line vs average of both fibroblasts (BJ and MRC-5), Table 1.

In general, pIC50 refers to −log10 of the IC50, conventionally taken in molar units. Low readings indicate a high IC50, high ones a low IC50. As to `C=C(C)[C@@H]1CC[C@]2(C(=O)OCc3ccccc3)CC[C@]3(C)C(CCC4[C@@]5(C)C=C(c6ccco6)C(=O)C(C)(C)C5CC[C@]43C)C12` (stereo partly drawn) [Compound 10a, Benzyl 2-(2-Furanyl)-3-oxolupa-1,20(29)-dien-28-oate], the negative-log IC50 (pIC50) (in assay [1] (full Table S1); in the assay on CEM-DNR (full Table S1); in the assay with DU-145 (prostate cancer) (full Table S1); in the assay with MRC-5 lung fibroblasts (full Table S1); in the assay with K562-TAX (full Table S1); in assay [2] (full Table S1)) was under 4.30 each time. For the same molecule, the pIC50 (in the assay with HCT116 p53–/– (full Table S1); with CCRF-CEM (full Table S1); in the assay with HCT 116 (full Table S1); in [3] (full Table S1); in the assay with U2OS (full Table S1)) was under 4.30 each time. In the assay with CCRF-CEM (setting [4]), the “SI (selectivity index)” value is over 1.0.
On to `C=C(C)[C@@H]1CC[C@]2(C(=O)OCc3ccccc3)CC[C@]3(C)C(CCC4[C@@]5(C)C=C(c6ccc7cn[nH]c7c6)C(=O)C(C)(C)C5CC[C@]43C)C12` (stereo partly drawn) [Compound 10n, Benzyl 2-(Indazol-6-yl)-3-oxolupa-1,20(29)-dien-28-oate], for which the pIC50 (in assay [1] (full Table S1); with CEM-DNR (full Table S1); in the assay on DU-145 (prostate cancer) (full Table S1); in the assay on MRC-5 lung fibroblasts (full Table S1); in the assay with K562-TAX (full Table S1); in assay [2] (full Table S1)) was under 4.30 throughout. In addition, the pIC50 (in the assay with HCT116 p53–/– (full Table S1); in the assay on CCRF-CEM (full Table S1); with HCT 116 (full Table S1); in [3] (full Table S1); in the assay on U2OS (full Table S1)) was under 4.30 in each case. For the same molecule, the “SI (selectivity index)” value with CCRF-CEM (setting [4]) is reported as over 1.0.
With `C=C(C)[C@@H]1CC[C@]2(C(=O)OCc3ccccc3)CC[C@]3(C)C(CCC4[C@@]5(C)C=C(c6cccnc6)C(=O)C(C)(C)C5CC[C@]43C)C12` (stereo partly drawn) [Compound 10g, Benzyl 2-(3-Pyridinyl)-3-oxolupa-1,20(29)-dien-28-oate], the pIC50 (in [1] (full Table S1); in the assay on CEM-DNR (full Table S1); in the assay with DU-145 (prostate cancer) (full Table S1); in the assay on MRC-5 lung fibroblasts (full Table S1); in the assay with K562-TAX (full Table S1); in [2] (full Table S1)) was under 4.30 throughout. Moreover, the pIC50 (in the assay on HCT116 p53–/– (full Table S1); in the assay with CCRF-CEM (full Table S1); in the assay on HCT 116 (full Table S1); in assay [3] (full Table S1); in the assay on U2OS (full Table S1)) was under 4.30 throughout. Further, the “SI (selectivity index)” value in the assay with CCRF-CEM (setting [4]) is given as over 1.0.
In the case of `C=C(C)[C@@H]1CC[C@]2(C(=O)O)CC[C@]3(C)C(CCC4[C@@]5(C)C=C(c6cncnc6)C(=O)C(C)(C)C5CC[C@]43C)C12` (stereo partly drawn) [Compound 11i, 2-(Pyrimidin-5-yl)-3-oxolupa-1,20(29)-dien-28-oic acid], the pIC50 in assay [1] (Table 1) was under 4.30; in the assay with CEM-DNR (Table 1) it was 4.38; in the assay with CEM-DNR (full Table S1), 4.38; in the assay with DU-145 (prostate cancer) (Table 1), 4.74; in the assay with DU-145 (prostate cancer) (full Table S1) it was 4.76; in the assay with MRC-5 lung fibroblasts (Table 1) it was under 4.30. The pIC50 in the assay with K562-TAX (Table 1) was 4.60; in [2] (Table 1), under 4.30; in the assay on HCT116 p53–/– (Table 1) it was 4.39; with CCRF-CEM (Table 1), 4.71; in the assay with HCT 116 (Table 1), 4.46; in the assay with HCT 116 (full Table S1), 4.46. In addition, the pIC50 (in [3] (Table 1); in the assay on U2OS (Table 1)) was under 4.30 each time. The “SI (selectivity index)” value with CCRF-CEM (setting [5]) is over 2.5.
Consider `C=C(C)[C@@H]1CC[C@]2(C(=O)OCc3ccccc3)CC[C@]3(C)C(CCC4[C@@]5(C)C=C(c6cncnc6)C(=O)C(C)(C)C5CC[C@]43C)C12` (stereo partly drawn) [Compound 10i, Benzyl 2-(5-Pyrimidinyl)-3-oxolupa-1,20(29)-dien-28-oate], for which the negative logarithm of the IC50 (pIC50) (in assay [1] (full Table S1); in the assay with CEM-DNR (full Table S1); with DU-145 (prostate cancer) (full Table S1); in the assay on MRC-5 lung fibroblasts (full Table S1); with K562-TAX (full Table S1); in assay [2] (full Table S1)) was under 4.30 in each case. Also, the negative logarithm of the IC50 (pIC50) (with HCT116 p53–/– (full Table S1); with CCRF-CEM (full Table S1); with HCT 116 (full Table S1); in assay [3] (full Table S1); with U2OS (full Table S1)) was under 4.30 in each case. Also, the “SI (selectivity index)” value with CCRF-CEM (setting [4]) is listed as over 1.0.
Turning to `C=C(C)[C@@H]1CC[C@]2(C(=O)O)CC[C@]3(C)C(CCC4[C@@]5(C)C=C(c6ccc7cn[nH]c7c6)C(=O)C(C)(C)C5CC[C@]43C)C12` (stereo partly drawn) [Compound 11n, 2-(Indazol-6-yl)-3-oxolupa-1,20(29)-dien-28-oic acid], the pIC50 in [1] (Table 1) is 4.46; in [1] (full Table S1) it was 4.45; with CEM-DNR (Table 1) it was 4.66; in the assay with CEM-DNR (full Table S1) it was 4.66; in the assay on DU-145 (prostate cancer) (Table 1), 5.08; with MRC-5 lung fibroblasts (Table 1), 4.57. Moreover, the negative logarithm of the IC50 (pIC50) with MRC-5 lung fibroblasts (full Table S1) is 4.58; with K562-TAX (Table 1), 4.92; with K562-TAX (full Table S1), 4.92; in assay [2] (Table 1), 4.82; in [2] (full Table S1), 4.82; with HCT116 p53–/– (Table 1), 4.77. Further, the pIC50 is 4.77 in the assay with HCT116 p53–/– (full Table S1); 5.31 in the assay on CCRF-CEM (Table 1); 4.82 in the assay with HCT 116 (Table 1); 4.83 in the assay with HCT 116 (full Table S1); 4.66 in [3] (Table 1); 4.65 in assay [3] (full Table S1). For the same molecule, the results for the negative logarithm of the IC50 (pIC50) with U2OS (Table 1) and with U2OS (full Table S1) were 4.68 and 4.69, respectively. For the same molecule, the “SI (selectivity index)” value in the assay on CCRF-CEM (setting [5]) is recorded as 6.3.
Consider `C=C(C)[C@@H]1CC[C@]2(C(=O)O)CC[C@]3(C)C(CCC4[C@@]5(C)C=C(c6cncc7ccccc67)C(=O)C(C)(C)C5CC[C@]43C)C12` (stereo partly drawn) [Compound 11l, 2-(Isoquinoline)-3-oxolupa-1,20(29)-dien-28-oic acid], for which the pIC50 was under 4.30 in assay [1] (Table 1); 4.77 in the assay with CEM-DNR (Table 1); 5.08 in the assay on DU-145 (prostate cancer) (Table 1); under 4.30 in the assay with MRC-5 lung fibroblasts (Table 1); 5.06 in the assay on K562-TAX (Table 1); 4.85 in [2] (Table 1). Further, the pIC50 is 4.86 in assay [2] (full Table S1); 4.51 with HCT116 p53–/– (Table 1); 4.51 with HCT116 p53–/– (full Table S1); 5.14 in the assay on CCRF-CEM (Table 1); 4.72 in the assay with HCT 116 (Table 1); 4.73 in the assay on HCT 116 (full Table S1). Also, the negative logarithm of the IC50 (pIC50) is under 4.30 in assay [3] (Table 1), 4.60 in the assay on U2OS (Table 1) and 4.61 in the assay with U2OS (full Table S1). The “IC50 BJ” value in assay [1] (Table 1) is reported as “below the detection limit”. Besides, in the assay on MRC-5 lung fibroblasts (Table 1), the “IC50 MRC-5” value was “below the detection limit”. In addition, the “SI (selectivity index)” value with CCRF-CEM (setting [5]) is over 7.0.
With `CC1(C)C(=O)C(c2cncnc2)=C[C@@]2(C)C1CC[C@]1(C)C2CCC2C3[C@H]4OC[C@@]3(CCC4(C)C)CC[C@]21C` (stereo partly drawn) [Compound 4i, 2-(Pyrimidin-5-yl)-19β,28-epoxyolean-1-en-3-one], the pIC50 is under 4.30 in assay [1] (Table 1); 4.57 in the assay on CEM-DNR (Table 1); 4.56 with CEM-DNR (full Table S1); under 4.30 in the assay with DU-145 (prostate cancer) (Table 1); under 4.30 in the assay on MRC-5 lung fibroblasts (Table 1); under 4.30 in the assay with K562-TAX (Table 1). Also, the negative-log IC50 (pIC50) (in assay [2] (Table 1); in the assay on HCT116 p53–/– (Table 1); with CCRF-CEM (Table 1); in the assay on HCT 116 (Table 1); in assay [3] (Table 1); in the assay on U2OS (Table 1)) was under 4.30 throughout.
`C=C(C)[C@@H]1CC[C@]2(C(=O)O)CC[C@]3(C)C(CCC4[C@@]5(C)C=C(c6ccc7c(c6)OCCO7)C(=O)C(C)(C)C5CC[C@]43C)C12` (stereo partly drawn) [Compound 11j, 2-(1,4-Benzodioxan)-3-oxolupa-1,20(29)-dien-28-oic acid]: the negative-log IC50 (pIC50) is under 4.30 in assay [1] (Table 1); 4.62 in the assay on CEM-DNR (Table 1); 5.15 with DU-145 (prostate cancer) (Table 1); 4.55 in the assay with MRC-5 lung fibroblasts (Table 1); 4.56 in the assay with MRC-5 lung fibroblasts (full Table S1); 4.77 in the assay with K562-TAX (Table 1). Also, the negative logarithm of the IC50 (pIC50) in the assay on K562-TAX (full Table S1) is 4.78; in assay [2] (Table 1), 4.85; in assay [2] (full Table S1), 4.87; with HCT116 p53–/– (Table 1) it was 4.68; in the assay with HCT116 p53–/– (full Table S1), 4.68; in the assay on CCRF-CEM (Table 1), 5.31. Also, the pIC50 was 4.66 in the assay on HCT 116 (Table 1); 4.66 in the assay on HCT 116 (full Table S1); 5.12 in [3] (Table 1); 4.66 in the assay on U2OS (Table 1); 4.66 in the assay with U2OS (full Table S1). In addition, in the assay with CCRF-CEM (setting [5]), the “SI (selectivity index)” value is recorded as over 7.9.
